The text below walks through data of PubChem BioAssay AID1745844 (Carcinogenic Potency Database (CPDB), 2022).

Activity calls are given as the source filed them. The rule behind the calls is not given here.

The data set has as its system rodent lifetime carcinogenesis bioassay, tumor incidence TD50. Kind of data set: chronic cancer bioassays in animals – CPDB, compiled studies (AID 1745844).

Broadly, the TD50 is the 50% point of the dose-response relation for the toxic effect studied. For `COc1ccc2nc(S(=O)Cc3ncc(C)c(OC)c3C)[nH]c2c1` (stereo not given), the TD50 is 63 mg/kg/day (rat, strain Sprague-Dawley, females, by gavage, site: gastric mucosa, lesion: carcinoid tumor, malignant, dosed 104 weeks, study length 104 weeks) and 1120 mg/kg/day (rat, strain Sprague-Dawley, males, by gavage, site: gastric mucosa, lesion: carcinoid tumor, malignant, dosed 104 weeks, study length 104 weeks).
For the compound `CCCCCC(/C=C/C=C\CCCCCCCC(=O)OC)OO` (stereo not given), the carcinogen call was “negative (inactive)” (rat, strain Wistar, males, by gavage, site: gastrointestinal tract, lesion: several types, types named in the paper, dosed 30 weeks, study length 87 weeks) and “negative (inactive)” (rat, strain Wistar, males, by gavage, site: liver, lesion: one or several types, types not named, dosed 30 weeks, study length 87 weeks).
Take `O=C(O)Cc1c[nH]c2ccccc12`: the carcinogen call is “negative (inactive)” (mouse, strain B6AKF1, females, oral dosing, site: any site (literature study), lesion: several types, types named in the paper, dosed 76 weeks, study length 76 weeks); “negative (inactive)” (mouse, strain B6AKF1, females, oral dosing, site: liver, lesion: hepatoma, dosed 76 weeks, study length 76 weeks); “negative (inactive)” (mouse, strain B6AKF1, females, oral dosing, site: lung, lesion: adenoma, dosed 76 weeks, study length 76 weeks); “negative (inactive)” (mouse, strain B6AKF1, males, oral dosing, site: any site (literature study), lesion: several types, types named in the paper, dosed 76 weeks, study length 76 weeks); “negative (inactive)” (mouse, strain B6AKF1, males, oral dosing, site: liver, lesion: hepatoma, dosed 76 weeks, study length 76 weeks); “negative (inactive)” (mouse, strain B6AKF1, males, oral dosing, site: lung, lesion: adenoma, dosed 76 weeks, study length 76 weeks). Further, under “mouse, strain B6C3F1, females, oral dosing, site: liver, lesion: hepatoma, dosed 76 weeks, study length 76 weeks”, the carcinogen call is “negative (inactive)”. Further, the TD50 reads like this: (mouse, strain B6C3F1, females, oral dosing, site: any site (literature study), lesion: several types, types named in the paper, dosed 76 weeks, study length 76 weeks) 538 mg/kg/day (inactive); (mouse, strain B6C3F1, females, oral dosing, site: lung, lesion: adenoma, dosed 76 weeks, study length 76 weeks) 538 mg/kg/day (inactive); (mouse, strain B6C3F1, males, oral dosing, site: any site (literature study), lesion: several types, types named in the paper, dosed 76 weeks, study length 76 weeks) 40.3 mg/kg/day (inactive); (mouse, strain B6C3F1, males, oral dosing, site: liver, lesion: hepatoma, dosed 76 weeks, study length 76 weeks) 113 mg/kg/day (inactive); (mouse, strain B6C3F1, males, oral dosing, site: lung, lesion: adenoma, dosed 76 weeks, study length 76 weeks) 500 mg/kg/day (inactive).
As to `c1ccc2occc2c1`, the TD50 is 45.9 mg/kg/day (mouse, strain B6C3F1, females, by gavage, site: any site (literature study), lesion: several types, types named in the paper, dosed 103 weeks, study length 104 weeks); 33.4 mg/kg/day (mouse, strain B6C3F1, females, by gavage, site: forestomach + liver + lung, lesion: squamous-cell carcinoma + squamous-cell papilloma + hepatocellular adenoma + alveolar/bronchiolar adenoma + alveolar/bronchiolar, dosed 103 weeks, study length 104 weeks); 145 mg/kg/day (mouse, strain B6C3F1, females, by gavage, site: forestomach, lesion: squamous-cell carcinoma + squamous-cell papilloma, dosed 103 weeks, study length 104 weeks); 172 mg/kg/day (mouse, strain B6C3F1, females, by gavage, site: forestomach, lesion: squamous-cell papilloma, dosed 103 weeks, study length 104 weeks); 36.4 mg/kg/day (mouse, strain B6C3F1, females, by gavage, site: liver, lesion: hepatocellular adenoma + hepatocellular carcinoma + neoplastic nodule, dosed 103 weeks, study length 104 weeks); 36.4 mg/kg/day (mouse, strain B6C3F1, females, by gavage, site: liver, lesion: hepatocellular adenoma + hepatocellular carcinoma, dosed 103 weeks, study length 104 weeks). For the same compound, the TD50 (mouse, strain B6C3F1, females, by gavage, site: liver, lesion: hepatocellular adenoma, dosed 103 weeks, study length 104 weeks) is 34.4 mg/kg/day; the TD50 (mouse, strain B6C3F1, females, by gavage, site: lung, lesion: alveolar/bronchiolar adenoma + alveolar/bronchiolar carcinoma, dosed 103 weeks, study length 104 weeks) was found to be 174 mg/kg/day; the TD50 (mouse, strain B6C3F1, females, by gavage, site: lung, lesion: alveolar/bronchiolar adenoma, dosed 103 weeks, study length 104 weeks) worked out at 224 mg/kg/day; the TD50 (mouse, strain B6C3F1, females, by gavage, site: multiple organs + spleen, lesion: malignant lymphoma, undifferentiated type, dosed 103 weeks, study length 104 weeks) is 322 mg/kg/day; the TD50 (mouse, strain B6C3F1, males, by gavage, site: any site (literature study), lesion: several types, types named in the paper, dosed 103 weeks, study length 104 weeks) amounted to 54.3 mg/kg/day; the TD50 (mouse, strain B6C3F1, males, by gavage, site: forestomach + liver + lung, lesion: squamous-cell carcinoma + squamous-cell papilloma + hepatocellular adenoma + hepatoblastoma + hepatocellular carcinoma + alveolar/, dosed 103 weeks, study length 104 weeks) was 23.9 mg/kg/day. For the same compound, the TD50 is, setting by setting: (mouse, strain B6C3F1, males, by gavage, site: forestomach, lesion: squamous-cell carcinoma + squamous-cell papilloma, dosed 103 weeks, study length 104 weeks) 108 mg/kg/day; (mouse, strain B6C3F1, males, by gavage, site: forestomach, lesion: squamous-cell carcinoma, dosed 103 weeks, study length 104 weeks) 383 mg/kg/day; (mouse, strain B6C3F1, males, by gavage, site: forestomach, lesion: squamous-cell papilloma, dosed 103 weeks, study length 104 weeks) 154 mg/kg/day; (mouse, strain B6C3F1, males, by gavage, site: liver, lesion: hepatoblastoma + hepatocellular carcinoma, dosed 103 weeks, study length 104 weeks) 114 mg/kg/day; (mouse, strain B6C3F1, males, by gavage, site: liver, lesion: hepatoblastoma, dosed 103 weeks, study length 104 weeks) 102 mg/kg/day; (mouse, strain B6C3F1, males, by gavage, site: liver, lesion: hepatocellular adenoma + hepatoblastoma + hepatocellular carcinoma, dosed 103 weeks, study length 104 weeks) 19.8 mg/kg/day. Further, the TD50 runs as follows: (mouse, strain B6C3F1, males, by gavage, site: liver, lesion: hepatocellular adenoma + hepatocellular carcinoma + neoplastic nodule, dosed 103 weeks, study length 104 weeks) 21.3 mg/kg/day; (mouse, strain B6C3F1, males, by gavage, site: liver, lesion: hepatocellular adenoma + hepatocellular carcinoma, dosed 103 weeks, study length 104 weeks) 21.3 mg/kg/day; (mouse, strain B6C3F1, males, by gavage, site: liver, lesion: hepatocellular adenoma, dosed 103 weeks, study length 104 weeks) 20.5 mg/kg/day; (mouse, strain B6C3F1, males, by gavage, site: lung, lesion: alveolar/bronchiolar adenoma + alveolar/bronchiolar carcinoma, dosed 103 weeks, study length 104 weeks) 160 mg/kg/day; (mouse, strain B6C3F1, males, by gavage, site: lung, lesion: alveolar/bronchiolar adenoma, dosed 103 weeks, study length 104 weeks) 136 mg/kg/day; (mouse, strain B6C3F1, males, by gavage, site: multiple organs, lesion: malignant lymphoma, lymphocytic type, dosed 103 weeks, study length 104 weeks) 919 mg/kg/day. The TD50 (rat, strain Fischer 344, females, by gavage, site: any site (literature study), lesion: several types, types named in the paper, dosed 103 weeks, study length 104 weeks) stood at 577 mg/kg/day; the TD50 (rat, strain Fischer 344, females, by gavage, site: kidney, lesion: tubular-cell adenocarcinoma, dosed 103 weeks, study length 104 weeks) is 424 mg/kg/day; the TD50 (rat, strain Fischer 344, females, by gavage, site: liver, lesion: hepatocellular adenoma + hepatocellular carcinoma + neoplastic nodule, dosed 103 weeks, study length 104 weeks) was 2090 mg/kg/day; the TD50 (rat, strain Fischer 344, females, by gavage, site: lung, lesion: alveolar/bronchiolar adenoma + alveolar/bronchiolar carcinoma, dosed 103 weeks, study length 104 weeks) turned out to be 418 mg/kg/day; the TD50 (rat, strain Fischer 344, females, by gavage, site: lung, lesion: alveolar/bronchiolar adenoma, dosed 103 weeks, study length 104 weeks) was determined as 530 mg/kg/day; the TD50 (rat, strain Fischer 344, females, by gavage, site: subcutaneous tissue, lesion: neurilemoma, malignant, dosed 103 weeks, study length 104 weeks) turned out to be 98.8 mg/kg/day. Besides, the TD50 turned out to be 574 mg/kg/day (rat, strain Fischer 344, females, by gavage, site: tongue, lesion: squamous-cell papilloma, dosed 103 weeks, study length 104 weeks); 22.5 mg/kg/day (rat, strain Fischer 344, males, by gavage, site: any site (literature study), lesion: several types, types named in the paper, dosed 103 weeks, study length 104 weeks); 55.3 mg/kg/day (rat, strain Fischer 344, males, by gavage, site: liver + multiple organs, lesion: mononuclear-cell leukemia, dosed 103 weeks, study length 104 weeks); 166 mg/kg/day (rat, strain Fischer 344, males, by gavage, site: lung, lesion: alveolar/bronchiolar carcinoma, dosed 103 weeks, study length 104 weeks); 271 mg/kg/day (rat, strain Fischer 344, males, by gavage, site: mammary gland, lesion: fibroadenoma, dosed 103 weeks, study length 104 weeks); 45.8 mg/kg/day (rat, strain Fischer 344, males, by gavage, site: pituitary gland, lesion: adenoma, NOS, dosed 103 weeks, study length 104 weeks). The TD50 was 8.03 mg/kg/day (inactive) (rat, strain Fischer 344, males, by gavage, site: testis, lesion: interstitial-cell tumor, dosed 103 weeks, study length 104 weeks) and 389 mg/kg/day (rat, strain Fischer 344, males, by gavage, site: thyroid gland, lesion: follicular-cell carcinoma, dosed 103 weeks, study length 104 weeks).
On to `[N-]=[N+]=O`, for which the carcinogen call is, setting by setting: (mouse, strain Swiss Webster, females, inhaled, site: liver, lesion: one or several types, types not named, dosed 78 weeks, study length 83 weeks) “negative (inactive)”; (mouse, strain Swiss Webster, females, inhaled, site: several sites, sites named in the paper, lesion: one or several types, types not named, dosed 78 weeks, study length 83 weeks) “negative (inactive)”; (mouse, strain Swiss Webster, males, inhaled, site: liver, lesion: one or several types, types not named, dosed 78 weeks, study length 83 weeks) “negative (inactive)”; (mouse, strain Swiss Webster, males, inhaled, site: lung, lesion: adenoma, dosed 78 weeks, study length 83 weeks) “negative (inactive)”; (mouse, strain Swiss Webster, males, inhaled, site: several sites, sites named in the paper, lesion: one or several types, types not named, dosed 78 weeks, study length 83 weeks) “negative (inactive)”. Further, the TD50 (mouse, strain Swiss Webster, females, inhaled, site: lung, lesion: adenoma, dosed 78 weeks, study length 83 weeks) is 309000 mg/kg/day (inactive).
